Test results from patent publication US11033550B2, “Medicament” (TAKEDA PHARMACEUTICAL COMPANY LIMITED, priority 2016, dated 2021).

Columns and labels:
[1] = tested on: monocrotaline (MCT)-induced pulmonary hypertensive rats; conditions: Non Patent Literatures 1 to 5; cited from earlier work
[2] = Non Patent Literature 7; cited from earlier work
[3] = tested on: hypoxia-induced pulmonary hypertensive (HPH) mice; conditions: Non Patent Literatures 1 to 5; cited from earlier work
[4] = tested on: monocrotaline-induced pulmonary hypertensive rat model; test: Right ventricular hypertrophy, RV/(LV+S), in monocrotaline-induced pulmonary hypertensive rat model; format: in vivo; conditions: for RV/(LV + S): 28 days after MCT, index for right cardiomegaly, mean
Description: (§1) Monocrotaline (MCT) was subcutaneously injected at 50 mg/kg (in 50% dimethyl sulfoxide solution) to male Sprague-Dawley rats having a body weight of 250 g ± 10% to prepare pulmonary hypertensive rat models. Compound A′ and the same amount of a vehicle were orally administered to a compound A′ administration group (dose: 1 mg/kg, 3 mg/kg, or 10 mg/kg) and a control group, respectively, every day over 14 days from the 14th day after the MCT administration. This experiment was carried out using these groups each involving 9 rats (12 rats were used only in a vehicle control group). • (2) Effect on Right Ventricular Pressure (RVP)
The right ventricle weight (RV), left ventricle weight (LV), and interventricular septum weight (S) were measured for pulmonary hypertensive rat models that survived at 28 days after MCT administration (negative control group (monocrotaline non-administered group), 9 rats; vehicle control group, 8 rats; compound A′ 1 mg/kg administration group, 9 rats; compound A′ 3 mg/kg administration group, 5 rats; compound A′ 10 mg/kg administration group, 9 rats; total 40 rats)), and RV/(LV+S) was determined as an index for right cardiomegaly.

[5] = tested on: monocrotaline-induced pulmonary hypertensive rat model; test: Right ventricular systolic pressure (RVSP) by catheterization in monocrotaline-induced pulmonary hypertensive rat model; format: in vivo; conditions: for RVSP: measured 28 days after MCT, mean
Description: as §1
(§2) The right ventricular systolic pressure (RVSP) was measured by catheterization for the rats that survived at 28 days after MCT administration ((negative control group (monocrotaline non-administered group), 9 rats; vehicle control group, 8 rats; compound A′ 1 mg/kg administration group, 9 rats; compound A′ 3 mg/kg administration group, 5 rats; compound A′ 10 mg/kg administration group, 9 rats; total 40 rats)).

[6] = molecular target: T1, calcium-sensing receptor (CaSR) (Homo sapiens, UniProt P41180); conditions: Non Patent Literature 6; cited from earlier work
T1 sequence (P41180 20-1078): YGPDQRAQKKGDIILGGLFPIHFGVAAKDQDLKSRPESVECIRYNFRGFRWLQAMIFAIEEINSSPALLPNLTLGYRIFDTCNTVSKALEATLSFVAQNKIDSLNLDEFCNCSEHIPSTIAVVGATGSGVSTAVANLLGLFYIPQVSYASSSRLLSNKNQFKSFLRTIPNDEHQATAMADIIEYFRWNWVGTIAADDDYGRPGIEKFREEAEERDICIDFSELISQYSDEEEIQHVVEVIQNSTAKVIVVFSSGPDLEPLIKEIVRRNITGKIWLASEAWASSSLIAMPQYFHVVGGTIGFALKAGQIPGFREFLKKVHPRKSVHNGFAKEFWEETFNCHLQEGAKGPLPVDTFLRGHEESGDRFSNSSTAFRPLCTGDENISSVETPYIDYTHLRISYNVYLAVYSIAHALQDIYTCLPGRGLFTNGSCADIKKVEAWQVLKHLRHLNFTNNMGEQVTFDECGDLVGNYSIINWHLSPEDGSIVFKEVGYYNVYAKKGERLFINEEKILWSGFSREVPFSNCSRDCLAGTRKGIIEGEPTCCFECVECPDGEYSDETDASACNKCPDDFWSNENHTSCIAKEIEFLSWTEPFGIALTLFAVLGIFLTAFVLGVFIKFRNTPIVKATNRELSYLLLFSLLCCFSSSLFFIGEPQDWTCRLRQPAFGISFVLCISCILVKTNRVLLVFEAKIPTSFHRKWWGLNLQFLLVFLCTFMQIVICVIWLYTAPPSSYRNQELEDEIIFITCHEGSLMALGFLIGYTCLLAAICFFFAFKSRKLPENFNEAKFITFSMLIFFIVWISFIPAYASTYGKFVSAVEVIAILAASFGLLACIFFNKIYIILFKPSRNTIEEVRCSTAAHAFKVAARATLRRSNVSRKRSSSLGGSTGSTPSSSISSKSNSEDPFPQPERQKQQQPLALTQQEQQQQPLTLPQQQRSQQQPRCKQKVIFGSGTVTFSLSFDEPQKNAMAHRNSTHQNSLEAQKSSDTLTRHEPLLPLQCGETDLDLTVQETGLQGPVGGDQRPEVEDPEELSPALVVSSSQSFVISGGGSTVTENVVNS

[7] = molecular target: T2, interaction between human NHE1 and human CHP1 (Homo sapiens, UniProt P19634+Q99653); test: CHP1-NHE1 interaction, AlphaScreen protein interaction measurement system; format: binding
T2 construct: made in house; host or cells: NHE1: FreeStyle 293 cells (microsomal fraction); CHP1: wheat germ cell-free translation system
T2 sequence (P19634 whole entry): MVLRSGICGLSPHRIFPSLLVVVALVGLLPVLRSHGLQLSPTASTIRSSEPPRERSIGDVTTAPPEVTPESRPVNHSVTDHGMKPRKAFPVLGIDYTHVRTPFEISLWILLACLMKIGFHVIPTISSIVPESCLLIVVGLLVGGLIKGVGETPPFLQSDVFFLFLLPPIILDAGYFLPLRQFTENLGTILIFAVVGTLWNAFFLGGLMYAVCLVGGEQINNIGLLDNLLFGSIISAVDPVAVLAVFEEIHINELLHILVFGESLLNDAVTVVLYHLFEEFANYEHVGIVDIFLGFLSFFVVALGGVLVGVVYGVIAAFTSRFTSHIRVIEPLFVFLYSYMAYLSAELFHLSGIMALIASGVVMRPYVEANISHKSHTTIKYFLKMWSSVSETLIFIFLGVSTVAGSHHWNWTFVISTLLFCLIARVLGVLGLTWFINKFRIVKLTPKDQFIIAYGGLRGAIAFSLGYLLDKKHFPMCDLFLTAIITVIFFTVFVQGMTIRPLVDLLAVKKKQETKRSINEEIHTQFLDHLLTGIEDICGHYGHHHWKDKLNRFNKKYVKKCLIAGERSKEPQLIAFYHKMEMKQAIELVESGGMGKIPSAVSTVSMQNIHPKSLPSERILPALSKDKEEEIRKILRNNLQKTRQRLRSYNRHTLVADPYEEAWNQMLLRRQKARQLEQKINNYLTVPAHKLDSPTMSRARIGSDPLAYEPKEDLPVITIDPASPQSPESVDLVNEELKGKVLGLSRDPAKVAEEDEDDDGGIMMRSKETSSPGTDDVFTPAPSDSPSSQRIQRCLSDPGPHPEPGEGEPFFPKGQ
T2 sequence (Q99653 whole entry): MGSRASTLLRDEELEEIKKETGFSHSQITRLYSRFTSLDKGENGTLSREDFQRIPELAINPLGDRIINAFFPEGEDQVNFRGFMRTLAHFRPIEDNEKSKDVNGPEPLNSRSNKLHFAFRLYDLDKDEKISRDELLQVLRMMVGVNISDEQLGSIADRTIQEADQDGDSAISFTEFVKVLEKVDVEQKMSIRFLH
Description: The inhibitory activity of compound A′ on the interaction between human NHE1 and human CHP1 was evaluated in a protein interaction measurement system using an amplified luminescence proximity homogeneous assay (AlphaScreen™ (PerkinElmer)). A microsomal fraction of FLAG-tagged full-length human NHE1 (Accession No. NM 003047) was prepared by being expressed in human embryonic kidney cell-derived FreeStyle™ 293 cells. Also, biotinylated full-length human CHP1 (Accession No. NM 007236) was expressed in a wheat germ cell-free translation system and purified. The NHE1 microsomal fraction and CHP 1 were diluted with an assay buffer (25 mM Tris-HCl (pH 7.4), 137 mM NaCl, 2.7 mM KCl, 0.1% BSA, 1 mM DTT), and compound A′ was added thereto. Then, the mixture was added to an Alpha Plate-384 Shallow Well (Perkin Elmer) in an amount of 2 μL/well, and reacted at room temperature for 60 minutes. Acceptor Beads and Donor Beads accompanying an AlphaScreen FLAG(M2) Detection Kit (PerkinElmer) were added thereto each in an amount of 2 μL/well, and the mixture was reacted at room temperature for 60 minutes. Thereafter, the AlphaScreen signal intensity was measured using an EnSpire Multi-label reader (PerkinElmer). Different concentrations of compound A′ (concentration: 50.0 nM to 0.8 nM) were evaluated in this test system. • (2) Results

[8] = tested on: monocrotaline-induced pulmonary hypertensive rat models; test: Survival rate (Kaplan-Meier) in monocrotaline-induced pulmonary hypertensive rat models; format: in vivo; conditions: 1, 3 or 10 mg/kg orally once every day over 14 days from 14th day after MCT; result in words
Description: as §1, with “230” for “250”, “10 g” for “10%”, “respectively, once” for “respectively,”, “12 rats.” for “9 rats (12 rats were used only in a vehicle control group).”, “Survival Rate” for “Right Ventricular Pressure (RVP)”

[9] = tested on: monocrotaline-induced pulmonary hypertensive rat model; test: Right ventricular pressure (RVP) by catheterization in monocrotaline-induced pulmonary hypertensive rat model; format: in vivo; conditions: for RVP: measured 28 days after MCT, mean
Description: as §1
as §2, with “ventricular” for “ventricular systolic”, “(RVP)” for “(RVSP)”, “(negative” for “((negative”, “rats).” for “rats)).”

[10] = tested on: monocrotaline-induced pulmonary hypertensive rat model; test: Pulmonary artery occlusion index (Elastica van Gieson staining) in monocrotaline-induced pulmonary hypertensive rat model; format: in vivo; conditions: for Pulmonary artery occlusion: 10 mg/kg orally, 28 days after MCT, twice medial wall thickness divided by artery diameter, mean
Description: as §1
Concerning the pulmonary hypertensive rat models that survived at 28 days after MCT administration (negative control group (monocrotaline non-administered group), 9 rats; vehicle control group, 8 rats; compound A′ 10 mg/kg administration group, 9 rats), tissue specimens of pulmonary tissue sections were prepared from 5 rats per group (total 15 rats) by Elastica van Gieson staining method to measure occlusion of the pulmonary artery. A value obtained by dividing a value that is twice as much as the thickness of the pulmonary artery medial wall by the diameter of the pulmonary artery was used as an index of occlusion.

[11] = tested on: monocrotaline-induced pulmonary hypertensive rat model; test: Pulmonary artery medial wall thickening (Elastica van Gieson staining) in monocrotaline-induced pulmonary hypertensive rat model; format: in vivo; conditions: for Thickness of pulmonary artery medial wall: 10 mg/kg orally, 28 days after MCT, mean
Description: as §1
Concerning the pulmonary hypertensive rat models that survived at 28 days after MCT administration (negative control group (monocrotaline non-administered group), 9 rats; vehicle control group, 8 rats; compound A′ 10 mg/kg administration group, 9 rats), tissue specimens of pulmonary tissue sections were prepared from 5 rats per group (total 15 rats) by Elastica van Gieson staining method to measure the thickening of the medial wall of the pulmonary artery.

[12] = 1 mg/kg orally every day over 14 days from 14th day after MCT
[13] = 3 mg/kg orally every day over 14 days from 14th day after MCT
[14] = 10 mg/kg orally every day over 14 days from 14th day after MCT
[15] = Diameter of pulmonary artery (<50 μM)

In the case of `CC(C)(Cc1ccc2ccccc2c1)NC[C@@H](O)COc1cccc(Cl)c1C#N` [NPS-2143], the “Reported effects on pulmonary hypertension pathology” value [1] is listed as “inhibit cardiac hypertrophy, a rise in right ventricular systolic pressure, myocardial tissue fibrosis, and pulmonary vascular remodeling”, the “Effect on the action of an existing PAH drug (PDE 5 inhibitor/sildenafil)” value [2] is listed as “enhance the effect” and the “Reported effects on pulmonary hypertension pathology” value [3] is listed as “inhibit cardiac hypertrophy, a rise in right ventricular systolic pressure, myocardial tissue fibrosis, and pulmonary vascular remodeling”.
For `CCc1ccc(C(CC)(CC)NC(=O)c2c(C)nn3c2N[C@@H](c2ccccc2)CC3(C)C)cc1` [Compound A′, (5R)-N-[1-Ethyl-1-(4-ethylphenyl)propyl]-2,7,7-trimethyl-5-phenyl-4,5,6,7-tetrahydropyrazolo[1,5-a]pyrimidine-3-carboxamide], the “RV/(LV + S)” value [4, 12] was 0.333, the “RV/(LV + S)” value [4, 13] was 0.307 and the “RV/(LV + S)” value [4, 14] was 0.282. For the same compound, the “Effect on right ventricular hypertrophy, in words” value ([4]; at 28 days after MCT administration, summary of Table 3) was “remarkably improved”, the RVSP [5, 12] was 48.3 mmHg and the RVSP [5, 13] was 39.1 mmHg. The RVSP [5, 14] was 28.0 mmHg, the “Effect on right ventricular systolic pressure (RVSP), in words” value ([5]; at 28 days after MCT administration, summary of Table 2) was “remarkably improved” and the “Activity at CaSR” value [6] was “CaSR antagonist”. For the same compound, the IC50 ([7]; AlphaScreen, FLAG-tagged human NHE1 microsomal fraction and biotinylated human CHP1, 50.0 nM to 0.8 nM tested, read-out: CHP1-NHE1 interaction activity (50% inhibitory concentration)) was 4.7 nM, the “CHP1-NHE1 inhibitory activity, in words” value ([7]; summary of Table 6) was “remarkable CHP1-NHE1 inhibitory activity” and the “Effect on survival rate (Kaplan-Meier survival curve, FIG. 1)” value [8] was “remarkably improved the survival rate”. It also gave an RVP [9, 12] of 26.4 mmHg, an RVP [9, 13] of 22.4 mmHg and an RVP [9, 14] of 17.8 mmHg. The “Effect on right ventricular pressure, in words” value ([9]; at 28 days after MCT administration, summary of Table 1) was “remarkably improved”, the Pulmonary artery occlusion [10, 15] was 0.20 and the Pulmonary artery occlusion ([10]; Diameter of pulmonary artery) was 0.19. For the same compound, the “Effect on occlusion of the pulmonary artery, in words” value ([10]; at 28 days after MCT administration, summary of Table 5) was “remarkably improved”, the “Thickness of pulmonary artery medial wall” value ([11]; Diameter of pulmonary artery (50 μM-100 μM)) was 6.86 and the “Thickness of pulmonary artery medial wall” value [11, 15] was 4.28. The “Effect on thickening of the pulmonary artery medial wall, in words” value ([11]; at 28 days after MCT administration, summary of Table 4) was “remarkably improved”.
For `C[C@@H](N[C@H]1CCCC[C@@H]1NC(=O)c1ccc(Cl)cc1)c1cccc2ccccc12` [Calhex 231], the “Effect on the action of an existing PAH drug (PDE 5 inhibitor/sildenafil)” value [2] is given as “enhance the effect”.
